Test results taken from US4987129A, “Cephalosporin derivatives” (priority 1987, dated 1991).
In brackets after ≈: the same amount, converted by molar mass. Counter-ions that a name gives are not always drawn. Like-named read-outs stand apart in the source and are kept apart here.

Tests used:
Assay type in all cases: cell-based
[1] = system: Staphylococcus aureus Smith; experiment: minimum inhibitory concentration (MIC), standard method of Japan Society of Chemotherapy; settings: Tables 2A, 2B
Experimental: (§1) The minimum inhibitory concentration (MIC) of the compounds obtained in the above Examples were measured according to the standard method of Japan Society of Chemotherapy.

[2] = system: Citrobacter freundii GN7391; experiment: minimum inhibitory concentration (MIC); settings: Citrobacter freundii GN7391; Tables 2A, 2B; read-out: MIC
Experimental: as §1

[3] = system: Enterobacter cloacae 908RN; experiment: minimum inhibitory concentration (MIC); settings: Enterobacter cloacae 908RN, Tables 2A, 2B
Experimental: as §1

[4] = system: Enterobacter cloacae GN7471; experiment: minimum inhibitory concentration (MIC); settings: Enterobacter cloacae GN7471; Tables 2A, 2B; read-out: MIC
Experimental: as §1

[5] = system: Escherichia coli GN5482; experiment: minimum inhibitory concentration (MIC); settings: Tables 2A, 2B
Experimental: as §1

[6] = system: Escherichia coli ML4704; experiment: minimum inhibitory concentration (MIC); settings: Escherichia coli ML4704; Tables 2A, 2B; read-out: MIC
Experimental: as §1

[7] = system: Klebsiella pneumoniae 4at521; experiment: minimum inhibitory concentration (MIC); settings: Tables 2A, 2B
Experimental: as §1

[8] = system: Proteus vulgris GN7919; experiment: minimum inhibitory concentration (MIC); settings: Proteus vulgris GN7919; Tables 2A, 2B; read-out: MIC
Experimental: as §1

[9] = system: Pseudomonas aeruginosa 4au542; experiment: minimum inhibitory concentration (MIC); settings: Tables 2A, 2B
Experimental: as §1

[10] = system: Pseudomonas aeruginosa 5D58-1; experiment: minimum inhibitory concentration (MIC); settings: 5D581, Tables 2A, 2B
Experimental: as §1

[11] = system: Pseudomonas aeruginosa GN10362; experiment: minimum inhibitory concentration (MIC); settings: Tables 2A, 2B
Experimental: as §1

[12] = system: Serratia marcescens GN10857; experiment: minimum inhibitory concentration (MIC); settings: Tables 2A, 2B
Experimental: as §1

[13] = system: Staphylococcus aureus IAA498; experiment: minimum inhibitory concentration (MIC); settings: Tables 2A, 2B
Experimental: as §1

## CON=C(C(=O)NC1C(=O)N2C(C(=O)O)=C(CSc3cc(C)nc4nc(CO)nn34)CSC12)c1csc(N)n1 (stereo not drawn) [Example 17, 7-[2-(2-amino-1,3-thiazol-4-yl)-2-(methoxyimino)acetamido]-3-[(2-hydroxymethyl-5-methyl-s-triazolo[1,5-a]pyrimidin-7-yl)thiomethyl]-3-cephem-4-carboxylic acid.hydrochloride]
[1]
  MIC: 0.39 µg/mL
[2]
  MIC: 50 µg/mL
[3]; read-out: MIC
  MIC: 50 µg/mL
[4]
  MIC: 3.13 µg/mL
[5]
  MIC: 0.1 µg/mL
[6]
  MIC: 0.025 µg/mL
[7]
  MIC: 0.39 µg/mL
[8]
  MIC: 25 µg/mL
[9]
  MIC: 100 µg/mL
[10]
  MIC: 100 µg/mL
[11]
  MIC: 100 µg/mL
[12]
  MIC: 12.5 µg/mL
[13]
  MIC: 12.5 µg/mL

## Cc1cc(SCC2=C(C(=O)O)N3C(=O)C(NC(=O)C(=NOC(C)(C)C(=O)O)c4csc(N)n4)[C@H]3SC2)n2nc(CO)nc2n1 (stereo partly drawn) [Example 20, 7-[2-(2-amino-1,3-thiazol-4-yl)-2-(1-carboxy-1-methylethoxyimino)acetamido]-3-[(2-hydroxymethyl-5-methyl-s-triazolo[1,5-a]pyrimidin-7-yl)thiomethyl]-3-cephem-4-carboxylic acid]
[1]
  MIC: 3.13 µg/mL (≈ 4.72 µM)
[2]
  MIC: > 100 µg/mL
[3]
  MIC: 100 µg/mL (≈ 151 µM)
[4]
  MIC: 6.25 µg/mL (≈ 9.42 µM)
[5]
  MIC: 0.78 µg/mL (≈ 1.18 µM)
[6]
  MIC: 0.39 µg/mL (≈ 0.588 µM)
[7]
  MIC: 0.78 µg/mL (≈ 1.18 µM)
[8]
  MIC: 3.13 µg/mL (≈ 4.72 µM)
[9]
  MIC: 12.5 µg/mL (≈ 18.8 µM)
[10]
  MIC: 6.25 µg/mL (≈ 9.42 µM)
[11]
  MIC: 12.5 µg/mL (≈ 18.8 µM)
[12]
  MIC: 12.5 µg/mL (≈ 18.8 µM)
[13]
  MIC: 6.25 µg/mL (≈ 9.42 µM)

## COCc1nc2nc(C)cc(SCC3=C(C(=O)O)N4C(=O)C(NC(=O)C(=NOC(C)(C)C(=O)NNC(=O)c5ccc(O)c(O)c5)c5csc(N)n5)C4SC3)n2n1 (stereo not drawn) [Example 24, 7-{2-[2-amino-1,3-thiazol-4-yl]-2-[1-(3-(3,4-dihydroxybenzoyl)carbazoyl)-1-methylethoxyimino]acetamido}-3-[(2-methoxymethyl-5-methyl-s-triazolo[1,5-a]-pyrimidin-7-yl)thiomethyl]-3-cephem-4-carboxylic acid.hydrochlride]
[1]
  MIC: 3.13 µg/mL (≈ 3.78 µM)
[2]
  MIC: 12.5 µg/mL (≈ 15.1 µM)
[3]; read-out: MIC
  MIC: 6.25 µg/mL (≈ 7.55 µM)
[4]
  MIC: 3.13 µg/mL (≈ 3.78 µM)
[5]
  MIC: 0.025 µg/mL (≈ 0.0302 µM)
[6]
  MIC: 0.025 µg/mL (≈ 0.0302 µM)
[7]
  MIC: 0.025 µg/mL (≈ 0.0302 µM)
[8]
  MIC: 1.56 µg/mL (≈ 1.88 µM)
[9]
  MIC: 0.2 µg/mL (≈ 0.242 µM)
[10]
  MIC: 0.05 µg/mL (≈ 0.0604 µM)
[11]
  MIC: 0.05 µg/mL (≈ 0.0604 µM)
[12]
  MIC: 0.39 µg/mL (≈ 0.471 µM)
[13]
  MIC: 6.25 µg/mL (≈ 7.55 µM)

## COCc1nc2nc(C)cc(SCC3=C(C(=O)O)N4C(=O)C(NC(=O)C(=NOC)c5csc(N)n5)C4SC3)n2n1 (stereo not drawn) [Example 26]
[1]
  MIC: 0.78 µg/mL (≈ 1.29 µM)
[2]
  MIC: 50 µg/mL (≈ 82.6 µM)
[3]; read-out: MIC
  MIC: 50 µg/mL (≈ 82.6 µM)
[4]
  MIC: 6.25 µg/mL (≈ 10.3 µM)
[5]
  MIC: 0.39 µg/mL (≈ 0.644 µM)
[6]
  MIC: 0.05 µg/mL (≈ 0.0826 µM)
[7]
  MIC: 1.56 µg/mL (≈ 2.58 µM)
[8]
  MIC: 25 µg/mL (≈ 41.3 µM)
[9]
  MIC: > 100 µg/mL
[10]
  MIC: 100 µg/mL (≈ 165 µM)
[11]
  MIC: 100 µg/mL (≈ 165 µM)
[12]
  MIC: 25 µg/mL (≈ 41.3 µM)
[13]
  MIC: 25 µg/mL (≈ 41.3 µM)

## CC(C)(ON=C(C(=O)NC1C(=O)N2C(C(=O)O)=C(CSc3cc(C(=O)O)nc4nc(CO)nn34)CSC12)c1csc(N)n1)C(=O)NNC(=O)c1ccc(O)c(O)c1 (stereo not drawn) [Example 30, 7-{2-[2-amino-1,3-thiazol-4-yl]-2-[1-(3-(3,4-dihydroxybenzoyl)carbazoyl)-1-methylethoxyimino]acetamido}-3-[(5-carboxy-2-hydroxymethyl-s-triazolo[1,5-a]-pyrimidin-7-yl)thiomethyl]-3-cephem-4-carboxylic acid.hydrochlride]
[1]
  MIC: 12.5 µg/mL (≈ 14.8 µM)
[2]
  MIC: 1.56 µg/mL (≈ 1.85 µM)
[3]; read-out: MIC
  MIC: 1.56 µg/mL (≈ 1.85 µM)
[4]
  MIC: 0.78 µg/mL (≈ 0.924 µM)
[5]
  MIC: 0.05 µg/mL (≈ 0.0593 µM)
[6]
  MIC: 0.025 µg/mL (≈ 0.0296 µM)
[7]
  MIC: 0.025 µg/mL (≈ 0.0296 µM)
[8]
  MIC: 3.13 µg/mL (≈ 3.71 µM)
[9]
  MIC: 0.2 µg/mL (≈ 0.237 µM)
[10]
  MIC: 0.1 µg/mL (≈ 0.119 µM)
[11]
  MIC: 0.025 µg/mL (≈ 0.0296 µM)
[12]
  MIC: 0.78 µg/mL (≈ 0.924 µM)
[13]
  MIC: 25 µg/mL (≈ 29.6 µM)

## CON=C(C(=O)NC1C(=O)N2C(C(=O)O)=C(CSc3cc(C(=O)O)nc4nc(CO)nn34)CSC12)c1csc(N)n1 (stereo not drawn) [Example 31]
[1]
  MIC: 6.25 µg/mL (≈ 10.1 µM)
[2]
  MIC: 100 µg/mL (≈ 161 µM)
[3]
  MIC: 100 µg/mL (≈ 161 µM)
[4]
  MIC: 6.25 µg/mL (≈ 10.1 µM)
[5]
  MIC: 0.2 µg/mL (≈ 0.322 µM)
[6]
  MIC: 0.1 µg/mL (≈ 0.161 µM)
[7]
  MIC: 0.2 µg/mL (≈ 0.322 µM)
[8]
  MIC: 50 µg/mL (≈ 80.4 µM)
[9]
  MIC: > 100 µg/mL
[10]
  MIC: > 100 µg/mL
[11]
  MIC: 100 µg/mL (≈ 161 µM)
[12]
  MIC: 25 µg/mL (≈ 40.2 µM)
[13]
  MIC: 12.5 µg/mL (≈ 20.1 µM)
